This is an account of results in patent publication US20260126382A1, “INTELLIGENT NIR II PHOTOTHERMAL AND COLORIMETRIC SENSING TECHNOLOGY” (Nanyang Technological University, priority 2022, published 2026).

Series [1] has as its system myrosinase (Myr). In words: Effect of interfering substances (metal ions, small molecules, amino acids, EDTA) on the Myr test system. It is filed as biochemical. Particulars: interfering substances 1 mM, FIG. 17C. How it is done:
(§1) For Myr detection, Sin (2.5 mM, 30 μL) and GOx (5 mg/mL, 10 μL, according to previous literature (Jiang, C. et al., RSC Adv. 2017, 7, 44463-44469)) were mixed with different concentrations of Myr first, and reacted at 37° C. for 30 min to generate H2O2. Then, an acetate buffer containing TMB and AuNPs was added into the aforementioned solution, incubated at 45° C. for 25 min, and cooled to room temperature. Afterward, the solution was used for the analysis of Myr enzyme activity.
For the anti-interference experiments discussed below, Sin (2.5 mM, 30 μL) and GOx (5 mg/mL, 10 μL) were mixed with different interfering substances first and reacted at 37° C. for 30 min. Then, acetate buffer containing TMB and AuNPs were added into the above solution, incubated at 45° C. for 25 min, and cooled to room temperature, and afterwards, the solution was used for photothermal and colorimetric analysis.

The subject of series [2] is myrosinase (Myr). The series can be described thus: Effect of Sin concentration on the Sin+Myr+GOx+TMB+AuNPs system. It is filed as biochemical. Particulars: Myr 0.5 mg/mL, GOx 0.5 mg/mL, TMB 1.5 mM, AuNPs 0.45 nM. How it is done:
as §1
Before testing different Myr concentrations, it is necessary to determine the maximum Sin concentration that can be applied. FIG. 16 illustrates that when the concentration of Sin exceeds 0.75 mM, the working efficiency decreases and the blue color becomes faint because excess Sin binds to the active regulatory sites of Myr, thereby inhibiting the activity of Myr to hydrolyze Sin. As a result, 0.75 mM was selected as the maximum Sin concentration for detecting commercial Myr at varying concentrations and constructing a standard curve. As shown in FIGS. 17A-B and 18, when Sin was present at a concentration of 0.75 mM, Myr was detectable in the range of 0-345 mU/mL, and its linear detection range in the absorption spectrum was 0 to 172.5 mU/mL with an LOD of 2.96 mU/mL.

Series [3] can be described thus: Peroxidase-like (POD-like) activity in the TMB+H2O2 system, Abs1064 nm. It counts as biochemical. Particulars: TMB+H2O2 system with HRP, FIG. 11.
For series [4] the following is noted: natural enzyme, from literature; cited from earlier work.

In the case of `[Cu+2]` [Cu^2+], the “inhibitory effect on Myr activity” value in the series on myrosinase (Myr) [1] is recorded as “strongest inhibitory effect”.
Same read-out and setting: as for `N[C@@H](CS)C(=O)O` [Cys], the entry is “inhibit Myr activity”.
On to `N[C@@H](CCC(=O)N[C@@H](CS)C(=O)NCC(=O)O)C(=O)O` [GSH], for which, in the series on myrosinase (Myr) [1], the “inhibitory effect on Myr activity” value is recorded as “inhibit Myr activity”.
With `C=CC/C(=N/OS(=O)(=O)[O-])S[C@@H]1OC(CO)[C@@H](O)C(O)C1O.[K+]` (stereo partly shown) [Sin, Sinigrin], in the series on myrosinase (Myr) [2], the “Sin concentration above which working efficiency decreases (excess Sin inhibiting the activity of Myr)” value is on record as “exceeds 0.75 mM”.
For `O=C1O[C@H]([C@@H](O)CO)C(O)=C1O` [Vc, Vitamin C], the “inhibitory effect on Myr activity” value with myrosinase (Myr) [1] is on record as “inhibit Myr activity”.
Take horseradish peroxidase [HRP]: the “slope of Abs1064 nm vs. c(HRP)” value in series [3] came to 0.04644 nM⁻¹. In addition, the “temperature beyond which activity is lost” value in series [4] is “exceeds 50 °C”.
